Assay results: patent US20090054382A1, “COMPOSITIONS OF PHOSPHODIESTERASE TYPE IV INHIBITORS” (priority 2005, published 2009)

Key:
[1] = tested on: LPS induced airway hyperreactivity and neutrophil count in BAL; experiment: In-vivo assay of PDE-IV inhibitors in combination with muscarinic receptor antagonists (LPS airway hyperreactivity and neutrophilia); details: Wistar rats, intratracheal, combination with Tiotropium
Procedure: MRA (1 ng/kg to 1 mg/kg) and PDE-IV inhibitor (1 ng/kg to 1 mg/kg) were instilled intratracheally under anesthesia either alone or in combination.
Wistar rats weighing 200±20 gm were used in the study. Rats had free access to food and water. On the day of experiment, animals were exposed to lipopolysaccharide (LPS, 100 μg/ml) for 40 min. One group of vehicle treated rats was exposed to phosphate buffered saline (PBS) for 40 min. […] The respiratory parameters were recorded online using Biosystem XA software, (Buxco Electronics, USA). Penh, at any chosen dose of acetylcholine was expressed as percent of PBS response and using a nonlinear regression analysis PC100 (2 folds of PBS value) values were computed. […]
PC100LPS=PC100 in vehicle treated and LPS challenged group PC100TEST=PC100 in group treated with a given dose of test compound PC100PBS=PC100 in vehicle treated group challenged with PBS Immediately after the airway hyperreactivity response was recorded, animals were sacrificed and bronchoalveolar lavage (BAL) performed. […] Total leukocyte and Neutrophil counts were expressed as cell count (millions cells ml^−1 of BAL). […]

[2] = tested on: TNF-α release from human PBMCs; experiment: Cell based assay for TNF-α release, PDE IV inhibitor in combination with p38 MAP Kinase inhibitors; details: inhibiting TNF-α release from human PBMCs
Procedure: Blood was collected in heparin or EDTA vacutainers from healthy human volunteers and Peripheral Blood Mononuclear Cells isolated using Ficoll Hypaque gradient. The cells were resuspended in serum free RPMI 1640 medium at a concentration of 2 million cells/ml.). […] of this cell suspension was co-incubated with 20 μl of compound, alone or in combination, for 10 min in a flat bottom 96 well microtiter plate. Compounds were dissolved in DMSO initially and diluted in medium for a final concentration of 0.2% DMSO. LPS (1 μg/ml, final concentration) was then added at a volume of 10 μl per well. After 30 min, 20 μl of fetal calf serum (final concentration of 10%) was added to each well. Cultures were incubated overnight at 37° C. in an atmosphere of 5% CO2 and 95% air. Supernatant were then removed and tested by ELISA for TNF-α release using a commercial kit (e.g. BD Biosciences). The level of TNF-α in treated wells was compared with the vehicle treated controls and inhibitory potency of compound was expressed as IC50 values calculated from the percent inhibition values by using Graph pad prism.

Which results are given for `COc1cc(C2=NO[C@]3(CCOC3)C2)ccc1OC(F)F` (single isomer, unassigned) [Compound No. 266, (5S or 5R)-3-[4-(Difluoromethoxy)-3-methoxyphenyl]-1,7-dioxa-2-azaspiro[4.4]non-2-ene]?
synergy with muscarinic receptor antagonist (MRA) [1]: synergy; Indication [2]: synergistic response
